Experimental data published in patent publication US20240382548A1, “COMPOSITIONS COMPRISING CASTANEA SATIVA EXTRACTS FOR TREATMENT OF HELICOBACTER PYLORI INFECTIONS” (priority 2021, published 2024).
Values after ≈ are worked out from the molar mass of the structure shown. Like-named read-outs stand apart in the source and are kept apart here.

Legend:
[1] = tested on: IL-8 release induced by H. pylori in GES-1 cells; experiment: IL-8 release induced by H. pylori in GES-1 cells; type: cell-based, human; conditions: for effect on IL-8 release induced by the pathogen: 10-50 μM
Description: At the same concentrations, the extract inhibits IL-8 release induced by H. pylori in GES-1 cells; the pathogen induces IL-8 release in gastric epithelial cells, of about a 20-fold increase compared with the unstimulated control. […] EGCG 50 μM (50% inhibition) was used as a positive control.

[2] = tested on: nuclear transcription factor NF-κB; experiment: NF-κB-guided transcription (luciferase reporter) induced by H. pylori; type: cell-based; conditions: 50 μM, positive control
Description: The nuclear transcription factor NF-κB is involved in inflammation of the gastric epithelium induced by H. pylori and is also responsible for increased expression of pro-inflammatory genes, including IL-8, in the gastric cells. […] The cells were 20 subjected to transient transfection with a plasmid containing three KB responsive sites upstream of the gene encoding for luciferase; the cells then underwent treatment with the pathogen, and the transcription was measured after 6 hours by luminescence.

H. pylori = experiment: Antibacterial activity (MIC) on a strain of H. pylori; type: cell-based; conditions: Helicobacter pylori; for MIC: read-out: MIC on H. pylori
Description: The antibacterial activity of the chestnut extract was evaluated by measuring the MIC (Minimum Inhibitory Concentration) on a strain of H. pylori.

[3] = tested on: non-tumoral human gastric epithelial cells GES-1; type: cell-based; conditions: 10-50 μM concentration range
Description: Firstly, the extract was analysed to establish its possible cytotoxicity (using the MTT colorimetric assay) towards non-tumoral human gastric epithelial cells GES-1 in the presence of H. pylori (ratio 1:50).

For `O=C(O[C@@H]1Cc2c(O)cc(O)cc2O[C@@H]1c1cc(O)c(O)c(O)c1)c1cc(O)c(O)c(O)c1` [EGCG, epigallocatechin gallate, reference compound], the “inhibition of IL-8 release” value ([1]; 50 μM, positive control) was 50% and the “inhibition of NF-κB-guided transcription” value [2] was 63%.

Molecule `CN(C)[C@@H]1C(O)=C(C(N)=O)C(=O)[C@@]2(O)C(O)=C3C(=O)c4c(O)cccc4[C@@](C)(O)[C@H]3C[C@@H]12` [Tetracycline, reference compound] has an inhibition at 0.25 µg/mL (H. pylori; 0.25 μg/mL, positive control, read-out: inhibition of the growth of the pathogen) of 80%.

`O=C1OC[C@H]2OC(=O)c3cc(O)c(O)c(O)c3-c3c(O)c(O)c(O)c4c3C(=O)O[C@H]([C@H]3OC(=O)c5c-4c(O)c(O)c(O)c5[C@H]3O)[C@@H]2OC(=O)c2cc(O)c(O)c(O)c2-c2c1cc(O)c(O)c2O` [castalagin] was tested, and the MIC (H. pylori; same experimental conditions as the extract) was 25 µM (≈ 23.4 µg/mL), the “effect on IL-8 release induced by the pathogen” value [1] was “concentration-dependent inhibition” and the toxicity [3] was “did not exhibit any toxicity”.

`O=C1OCC2OC(=O)c3cc(O)c(O)c(O)c3-c3c(O)c(O)c(O)c4c3C(=O)OC(C2OC(=O)c2cc(O)c(O)c(O)c2-c2c1cc(O)c(O)c2O)C1OC(=O)c2c-4c(O)c(O)c(O)c2C1O` (stereo not drawn) [vescalagin] was tested, and the MIC (H. pylori) was 25 µM (≈ 23.4 µg/mL), the “effect on IL-8 release induced by the pathogen” value [1] was “concentration-dependent inhibition” and the toxicity [3] was “did not exhibit any toxicity”.
